Assay results taken from US7928078B2, “Conjugates of immune cell specific macrolide compounds with anti-inflammatory compounds for improved cellular targeting of anti-inflammatory therapy” (GlaxoSmithKline Istrazivacki Centar Zagreb D.O.O., priority 2001, dated 2011).

Target: T1, alpha isoform of human glucocorticoid receptor (Homo sapiens, UniProt P04150)
T1 construct: expressed in transfected cells; host or cells: COS-1 cells, transient transfection with pcDNA3.1 hygro(+) carrying the GR alpha cDNA
T1 sequence (P04150 1-777): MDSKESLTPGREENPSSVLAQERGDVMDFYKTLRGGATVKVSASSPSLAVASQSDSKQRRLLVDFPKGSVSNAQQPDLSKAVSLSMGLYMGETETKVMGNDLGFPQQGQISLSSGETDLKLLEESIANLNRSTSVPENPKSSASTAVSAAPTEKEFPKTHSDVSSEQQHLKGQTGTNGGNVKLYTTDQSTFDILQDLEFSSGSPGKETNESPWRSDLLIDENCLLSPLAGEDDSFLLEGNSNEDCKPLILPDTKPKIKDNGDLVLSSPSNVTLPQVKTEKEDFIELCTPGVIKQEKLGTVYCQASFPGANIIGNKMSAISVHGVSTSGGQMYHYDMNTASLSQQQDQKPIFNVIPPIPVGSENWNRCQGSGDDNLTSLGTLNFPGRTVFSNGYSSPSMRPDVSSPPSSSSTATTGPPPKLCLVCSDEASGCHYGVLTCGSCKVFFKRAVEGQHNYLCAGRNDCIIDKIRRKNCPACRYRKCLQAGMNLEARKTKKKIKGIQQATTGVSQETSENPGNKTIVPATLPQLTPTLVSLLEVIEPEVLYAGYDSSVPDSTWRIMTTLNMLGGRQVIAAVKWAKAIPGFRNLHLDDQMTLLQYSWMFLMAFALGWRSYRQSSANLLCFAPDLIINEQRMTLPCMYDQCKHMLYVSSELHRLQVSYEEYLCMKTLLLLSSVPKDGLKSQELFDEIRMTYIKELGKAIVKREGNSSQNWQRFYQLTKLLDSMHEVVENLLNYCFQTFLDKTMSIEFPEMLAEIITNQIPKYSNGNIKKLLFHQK
Assay: Assay of binding to the human glucocorticoid receptor ([3H] dexamethasone competition in transfected COS-1 cells)
Details: 24 nM [3H] dexamethasone
Text: Assay of Binding to the Human Glucocorticoid Receptor
The gene for alpha isoform of human glucocorticoid receptor was cloned by reverse polymerase chain reaction. The total RNA was isolated from human peripheral blood lymphocites according to the instructions of the manufacturer (Qiagen), transcripted into cDNA with AMV reverse transcriptase (Roche) and the gene was multiplied by specific primers
The obtained reaction product was cloned into XhoI/BamHI site of Bluescript KS plasmid (Stratagene), subjected to sequencing by dideoxy fluorescent method with M13 and M13 rev primers (Mycrosynth) and then it was cloned into XhoI/BamHI site of pcDNA3.1 hygro(+)plasmid (Invitrogen). 1×10^5 COS-1 cells were seeded onto a 12-well plate (Falcon) in DMEM medium (Life Technologies) with 10% FBS (Biowhitaker) and cultivated up to a 70% confluence at 37° C. in an atmosphere with 5% CO2. The medium was removed and 1 μg of DNA, 7 μl of PLUS reagent and 2 μl of Lipofectamine (Life Technologies) in 500 μl DMEM were added per well. The cells were incubated at 37° C. in an atmosphere with 5% CO2 and after 5 hours the same volume of 20% FBS/DMEM was added. After 24 hours the medium was completely changed. 48 hours after the transfection, the test compounds in different concentrations and 24 nM [^3H] dexamethasone (Pharmacia) in DMEM medium were added. The cells were incubated for 90 minutes at 37° C. in an atmosphere with 5% CO2, washed three times with PBS buffer (Sigma), cooled to 4° C. (pH=7.4) and then lyzed in Tris buffer (pH=8.0) (Sigma) with 0.2% SDS (Sigma). After the addition of UltimaGold XR (Packard) scintillation liquid, the residual radioactivity was read in a Tricarb (Packard) β-scintillation counter.

Row | SMILES | competition with radioactive dexamethasone in the binding site on the glucocorticoid receptor
1 | CC[C@H]1OC(=O)[C@H](C)[C@@H](O)[C@H](C)[C@@H](O[C@@H]2O[C@H](C)C[C@@H](N(C)C)[C@H]2OC(=O)CCCCOC(=O)[C@@]2(O)[C@H](C)CC3C4C[C@H](F)C5=CC(=O)C=C[C@]5(C)[C@@]4(Cl)[C@@H](O)C[C@@]32C)[C@](C)(O)C[C@@H](C)CN(C)[C@H](C)[C@@H](O)[C@]1(C)O (stereo partly drawn) [Compound 27] | able to compete with radioactive dexamethasone

System: mouse T-cell hybridoma 13
Assay: Assay of inhibition of mouse T-cell hybridoma 13 proliferation as a result of apoptose induction
Format: cell-based
Details: [3H] thymidine incorporation
Procedure: Assay of Inhibition of Mouse T-Cell Hybridoma 13 Proliferation as a Result of Apoptose Induction
In a 96-well plate triplicates of test steroid dilution in RPMI medium (Immunoloski zavod) with […] were performed. To the solutions of compounds 20 000 cells per well were added and incubated overnight at 37° C. in an atmosphere with 5% CO2, then 1 μCi of [^3H] thymidine (Pharmacia) was added and it was incubated for additional 3 hours. The cells were harvested by sucking over GF/C filter (Packard). Onto each well 30 μl of Microscynt O scintillation liquid (Packard) were added and the incorporated radioactivity was measured on a β-scintillation counter (Packard). The specifity of apoptose induction by glucocorticoids was proven by antagonising the proliferation inhibition with mifepristone (Sigma).

Row | SMILES | inhibition of cell hybridoma 13 proliferation
2 | CC[C@H]1OC(=O)[C@H](C)[C@@H](O)[C@H](C)[C@@H](O[C@@H]2O[C@H](C)C[C@@H](N(C)C)[C@H]2OC(=O)CCCCOC(=O)[C@@]2(O)[C@H](C)CC3C4C[C@H](F)C5=CC(=O)C=C[C@]5(C)[C@@]4(Cl)[C@@H](O)C[C@@]32C)[C@](C)(O)C[C@@H](C)CN(C)[C@H](C)[C@@H](O)[C@]1(C)O (stereo partly drawn) [Compound 27] | demonstrated an inhibition

System: interleukin-2 production induced by the stimulation via CD3 receptor
Assay: Assay of inhibition of interleukin-2 production
Format: cell-based, mouse
Details: not given
Procedure: Assay of Inhibition of Interleukin-2 Production
Onto a 96-well plate (Nunc) 15 ng of 2C11 antibodies (Pharmingen) per well were added and left to adsorb in PBS buffer (pH=7.4) overnight at 4° C. PBS was removed, the plate was washed with RPMI medium and then 50,000 cells per well were added and incubated in the medium with and without a dilution of the test compounds. The concentration of IL-2 in the supernatant was measured by ELISA specific for mouse IL-2 (R&D Systems).

Row | SMILES | inhibition of interleukin-2 production
3 | CC[C@H]1OC(=O)[C@H](C)[C@@H](O)[C@H](C)[C@@H](O[C@@H]2O[C@H](C)C[C@@H](N(C)C)[C@H]2OC(=O)CCCCOC(=O)[C@@]2(O)[C@H](C)CC3C4C[C@H](F)C5=CC(=O)C=C[C@]5(C)[C@@]4(Cl)[C@@H](O)C[C@@]32C)[C@](C)(O)C[C@@H](C)CN(C)[C@H](C)[C@@H](O)[C@]1(C)O (stereo partly drawn) [Compound 27] | demonstrate an inhibition

System: not given
Assay: not given
Details: not given

Row | SMILES | melting point [°C]
4 | CC[C@H]1OC(=O)[C@H](C)[C@@H](O[C@@H]2C[C@](C)(OC)[C@H](O)C(C)O2)[C@H](C)[C@@H](O[C@@H]2O[C@H](C)C[C@@H](N(C)C)[C@H]2O)[C@](C)(O)C[C@@H](C)CN(CCCNC(=O)[C@@]2(O)[C@H](C)CC3C4C[C@H](F)C5=CC(=O)C=C[C@]5(C)[C@@]4(Cl)[C@@H](O)C[C@@]32C)[C@H](C)[C@@H](O)[C@]1(C)O (stereo partly drawn) | 194 to 202
5 | CC[C@H]1OC(=O)[C@H](C)[C@@H](O[C@@H]2C[C@](C)(OC)[C@H](O)C(C)O2)[C@H](C)[C@@H](O[C@@H]2O[C@H](C)C[C@@H](N(C)C)[C@H]2O)[C@](C)(O)C[C@@H](C)CN(CCCNC(=O)[C@@]23OC(C)(C)O[C@@H]2CC2C4C[C@H](F)C5=CC(=O)C=C[C@]5(C)[C@@]4(F)[C@@H](O)C[C@@]23C)[C@H](C)[C@@H](O)[C@]1(C)O (stereo partly drawn) | 178
6 | CC[C@H]1OC(=O)C(C)[C@@H](O)[C@H](C)[C@@H](O[C@@H]2O[C@H](C)C[C@@H](N(C)C)[C@H]2O)[C@](C)(O)C[C@@H](C)CN(CCCNC(=O)[C@@]2(O)[C@H](C)CC3C4C[C@H](F)C5=CC(=O)C=C[C@]5(C)[C@@]4(Cl)[C@@H](O)C[C@@]32C)[C@H](C)[C@@H](O)[C@]1(C)O (stereo partly drawn) | 130 to 132
7 | CC[C@H]1OC(=O)[C@H](C)[C@@H](O)[C@H](C)C(O[C@@H]2O[C@H](C)C[C@@H](N(C)C)[C@H]2O)[C@](C)(O)C[C@@H](C)CN(CCCNC(=O)[C@@]2(O)[C@H](C)CC3C4C[C@H](F)C5=CC(=O)C=C[C@]5(C)C4[C@@H](O)C[C@@]32C)[C@H](C)[C@@H](O)[C@]1(C)O (stereo partly drawn) | 202 to 204
8 | CC[C@H]1OC(=O)[C@H](C)[C@@H](O)[C@H](C)[C@@H](O[C@@H]2O[C@H](C)C[C@@H](N(C)C)[C@H]2O)[C@](C)(O)C[C@@H](C)CN(CCCNC(=O)[C@@]2(O)[C@H](C)CC3C4C[C@H](F)C5=CC(=O)C=C[C@]5(C)[C@@]4(F)[C@@H](O)C[C@@]32C)[C@H](C)[C@@H](O)[C@]1(C)O (stereo partly drawn) | 182
9 | CC[C@H]1OC(=O)[C@H](C)[C@@H](O)[C@H](C)[C@@H](O[C@@H]2O[C@H](C)C[C@@H](N(C)C)[C@H]2O)[C@](C)(O)C[C@@H](C)CN(CCCNC(=O)[C@@]2(O)CCC3C4CCC5=CC(=O)CC[C@]5(C)C4[C@@H](O)C[C@@]32C)[C@H](C)[C@@H](O)[C@]1(C)O (stereo partly drawn) | 160 to 161
10 | CC[C@H]1OC(=O)[C@H](C)[C@@H](O)[C@H](C)[C@@H](O[C@@H]2O[C@H](C)C[C@@H](N(C)C)[C@H]2O)[C@](C)(O)C[C@@H](C)CN(CCCNC(=O)[C@@]2(O)[C@H](C)CC3C4CCC5=CC(=O)C=C[C@]5(C)[C@@]4(F)[C@@H](O)C[C@@]32C)[C@H](C)[C@@H](O)[C@]1(C)O (stereo partly drawn) | 260 to 265
11 | CC[C@H]1OC(=O)[C@H](C)[C@@H](OC(=O)CCCCOC(=O)[C@@]2(O)[C@H](C)CC3C4CCC5=CC(=O)C=C[C@]5(C)[C@@]4(F)[C@@H](O)C[C@@]32C)[C@H](C)[C@@H](O[C@@H]2O[C@H](C)C[C@@H](N(C)C)[C@H]2OC(C)=O)[C@](C)(O)C[C@@H](C)CN(C)[C@H](C)[C@@H](O)[C@]1(C)O (stereo partly drawn) | 174 to 175
12 | CC[C@H]1OC(=O)[C@H](C)[C@@H](O[C@@H]2C[C@](C)(OC)[C@H](O)C(C)O2)[C@H](C)[C@@H](O[C@@H]2O[C@H](C)C[C@@H](N(C)C)[C@H]2OC(=O)CCCCOC(=O)[C@@]2(O)[C@H](C)CC3C4C[C@H](F)C5=CC(=O)C=C[C@]5(C)[C@@]4(F)[C@@H](O)C[C@@]32C)[C@](C)(O)C[C@@H](C)CN(C)[C@H](C)[C@@H](O)[C@]1(C)O (stereo partly drawn) | 159 to 160
13 | CC[C@H]1OC(=O)[C@H](C)[C@@H](O[C@@H]2C[C@](C)(OC)[C@H](O)C(C)O2)[C@H](C)[C@@H](O[C@@H]2O[C@H](C)C[C@@H](N(C)C)[C@H]2OC(=O)CCCCOC(=O)[C@@]2(O)[C@H](C)CC3C4CCC5=CC(=O)C=C[C@]5(C)[C@@]4(F)[C@@H](O)C[C@@]32C)[C@](C)(O)C[C@@H](C)CN(C)[C@H](C)[C@@H](O)[C@]1(C)O (stereo partly drawn) | 161 to 168
14 | CC[C@H]1OC(=O)[C@H](C)[C@@H](O[C@@H]2C[C@](C)(OC)[C@H](O)C(C)O2)[C@H](C)[C@@H](O[C@@H]2O[C@H](C)C[C@@H](N(C)C)[C@H]2OC(=O)CCCCOC(=O)[C@@]2(O)[C@H](C)CC3C4C[C@H](F)C5=CC(=O)C=C[C@]5(C)[C@@]4(Cl)[C@@H](O)C[C@@]32C)[C@](C)(O)C[C@@H](C)CN(C)[C@H](C)[C@@H](O)[C@]1(C)O (stereo partly drawn) | 91 to 99
15 | CC[C@H]1OC(=O)[C@H](C)[C@@H](O)[C@H](C)[C@@H](O[C@@H]2O[C@H](C)C[C@@H](N(C)C)[C@H]2OC(=O)CCCCOC(=O)[C@@]2(O)[C@H](C)CC3C4CCC5=CC(=O)C=C[C@]5(C)[C@@]4(F)[C@@H](O)C[C@@]32C)[C@](C)(O)C[C@@H](C)CN(C)[C@H](C)[C@@H](O)[C@]1(C)O (stereo partly drawn) | 170
16 | CC[C@H]1OC(=O)[C@H](C)[C@@H](O)[C@H](C)[C@@H](O[C@@H]2O[C@H](C)C[C@@H](N(C)C)[C@H]2OC(=O)CCCCOC(=O)[C@@]2(O)[C@H](C)CC3C4C[C@H](F)C5=CC(=O)C=C[C@]5(C)C4[C@@H](O)C[C@@]32C)[C@](C)(O)C[C@@H](C)CN(C)[C@H](C)[C@@H](O)[C@]1(C)O (stereo partly drawn) | 145 to 151
17 | CC[C@H]1OC(=O)[C@H](C)[C@@H](O[C@@H]2C[C@](C)(OC)[C@H](O)C(C)O2)[C@H](C)[C@@H](O[C@@H]2O[C@H](C)C[C@@H](N(C)C)[C@H]2O)[C@](C)(O)C[C@@H](C)CN(CCCNC(=O)[C@@]2(O)[C@H](C)CC3C4C[C@H](F)C5=CC(=O)C=C[C@]5(C)C4[C@@H](O)C[C@@]32C)[C@H](C)[C@@H](O)[C@]1(C)O (stereo partly drawn) | 175 to 178
18 | CC[C@H]1OC(=O)[C@H](C)[C@@H](O)[C@H](C)[C@@H](O[C@@H]2O[C@H](C)C[C@@H](N(C)C)[C@H]2OC(=O)CCCCOC(=O)[C@@]2(O)[C@H](C)CC3C4C[C@H](F)C5=CC(=O)C=C[C@]5(C)[C@@]4(Cl)[C@@H](O)C[C@@]32C)[C@](C)(O)C[C@@H](C)CN(C)[C@H](C)[C@@H](O)[C@]1(C)O (stereo partly drawn) [Compound 27] | 130 to 132
